Laboratory results taken from article PMC8025945 (Journal of medicinal chemistry, 2017).
Read-outs that look alike come from different tables or passages of the source.

Assays:
recombinant Top1 = target: T1, recombinant Top1 (Homo sapiens, UniProt P11387); test: Top1-mediated DNA cleavage assay; format: biochemical; conditions: semiquantitative scale relative to 1 μM MJ-III-65 (6) and 1 μM camptothecin (1)
T1 sequence (P11387 1-765): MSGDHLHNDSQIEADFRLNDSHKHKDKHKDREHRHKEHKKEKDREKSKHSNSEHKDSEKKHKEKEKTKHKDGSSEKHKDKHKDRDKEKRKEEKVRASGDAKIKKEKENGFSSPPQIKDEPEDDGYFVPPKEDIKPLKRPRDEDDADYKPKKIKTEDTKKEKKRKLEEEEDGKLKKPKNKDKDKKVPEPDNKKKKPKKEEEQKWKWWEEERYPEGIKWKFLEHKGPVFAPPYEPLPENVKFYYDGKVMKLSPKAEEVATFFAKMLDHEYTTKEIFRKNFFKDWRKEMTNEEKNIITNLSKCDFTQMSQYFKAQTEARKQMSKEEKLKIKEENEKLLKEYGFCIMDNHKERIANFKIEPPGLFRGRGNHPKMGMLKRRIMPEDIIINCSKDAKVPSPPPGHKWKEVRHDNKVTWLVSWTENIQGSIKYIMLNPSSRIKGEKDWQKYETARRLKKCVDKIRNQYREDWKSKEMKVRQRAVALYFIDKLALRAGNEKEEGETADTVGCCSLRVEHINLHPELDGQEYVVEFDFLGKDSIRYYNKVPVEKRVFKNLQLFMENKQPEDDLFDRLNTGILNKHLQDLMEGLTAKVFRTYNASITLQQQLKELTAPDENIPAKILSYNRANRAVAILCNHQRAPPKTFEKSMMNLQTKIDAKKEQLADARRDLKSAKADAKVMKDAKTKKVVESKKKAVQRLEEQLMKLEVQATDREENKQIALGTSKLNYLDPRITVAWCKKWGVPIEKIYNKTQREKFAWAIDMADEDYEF

UACC-62 = test: NCI-60 human tumor cell line screen, melanoma UACC-62; conditions: read-out: cytotoxicity (GI50) melanoma UACC-62; 50% growth inhibition
HOP-62 = test: NCI-60 human tumor cell line screen, lung HOP-62; conditions: read-out: cytotoxicity (GI50) lung HOP-62; 50% growth inhibition
SN12C = test: NCI-60 human tumor cell line screen, renal SN12C; conditions: read-out: cytotoxicity (GI50) renal SN12C; 50% growth inhibition
HCT-116 = test: NCI-60 human tumor cell line screen, colon HCT-116; conditions: read-out: cytotoxicity (GI50) colon HCT-116; 50% growth inhibition
DU-145 = test: NCI-60 human tumor cell line screen, prostate DU-145; conditions: read-out: cytotoxicity (GI50) prostate DU-145; 50% growth inhibition
OVCAR-3 = test: NCI-60 human tumor cell line screen, ovarian OVCAR-3; conditions: read-out: cytotoxicity (GI50) ovarian OVCAR-3; 50% growth inhibition
MCF-7 = test: NCI-60 human tumor cell line screen, breast MCF-7; conditions: read-out: cytotoxicity (GI50) breast MCF-7; 50% growth inhibition
SF-539 = test: NCI-60 human tumor cell line screen, CNS SF-539; conditions: read-out: cytotoxicity (GI50) CNS SF-539; 50% growth inhibition
zebrafish embryos = conditions: for lethality in zebrafish (comparison between compounds): statistical comparison of 9, 16b and 17b
[1] = test system: NCI-60 human tumor cell lines; test: NCI-60 mean graph midpoint; conditions: read-out: MGM GI50

COc1cnc2c(c1)C(=O)c1c-2n(CCCN2CCNCC2)c(=O)c2cc(Cl)ccc12 [16e, 3-Chloro-9-methoxy-6-(3-(piperazin-1-yl)propyl)-5H-pyrido[3′,2′:4,5]cyclopenta[1,2-c]isoquinoline-5,11(6H)-dione]
enzyme inhibitory activity Top1 (compound-induced DNA cleavage score) (recombinant Top1): +

COc1cnc2c(c1)C(=O)c1c-2n(CCCNC(C)C)c(=O)c2cc(Cl)ccc12 [16f, 3-Chloro-9-methoxy-6-(3-(isopropylamino)propyl)-5H-pyrido[3′,2′:4,5]cyclopenta[1,2-c]isoquinoline-5,11(6H)-dione]
enzyme inhibitory activity Top1 (compound-induced DNA cleavage score) (recombinant Top1): ++

COc1cnc2c(c1)C(=O)c1c-2n(CCCN2CCOCC2)c(=O)c2cc(F)ccc12 [17a, 3-Fluoro-9-methoxy-6-(3-morpholinopropyl)-5H-pyrido[3′,2′:4,5]cyclopenta[1,2-c]isoquinoline-5,11(6H)-dione]
enzyme inhibitory activity Top1 (compound-induced DNA cleavage score) (recombinant Top1): +++

COc1cnc2c(c1)C(=O)c1c-2n(CCCNC2=NCCS2)c(=O)c2cc(F)ccc12 [17c, 3-Fluoro-6-(3-((4,5-dihydrothiazol-2-yl)amino)propyl)-9-methoxy-5H-pyrido[3′,2′:4,5]cyclopenta[1,2-c]isoquinoline-5,11(6H)-dione]
enzyme inhibitory activity Top1 (compound-induced DNA cleavage score) (recombinant Top1): ++

COc1cnc2c(c1)C(=O)c1c-2n(CCCN2CCC(O)CC2)c(=O)c2cc(F)ccc12 [17d, 3-Fluoro-6-(3-(4-hydroxypiperidin-1-yl)propyl)-9-methoxy-5H-pyrido[3′,2′:4,5]cyclopenta[1,2-c]isoquinoline-5,11(6H)-dione]
enzyme inhibitory activity Top1 (compound-induced DNA cleavage score) (recombinant Top1): +

COc1cnc2c(c1)C(=O)c1c-2n(CCCN2CCNCC2)c(=O)c2cc(F)ccc12 [17e, 3-Fluoro-9-methoxy-6-(3-(piperazin-1-yl)propyl)-5H-pyrido[3′,2′:4,5]cyclopenta[1,2-c]isoquinoline-5,11(6H)-dione]
enzyme inhibitory activity Top1 (compound-induced DNA cleavage score) (recombinant Top1): +

COc1cnc2c(c1)C(=O)c1c-2n(CCCNC(C)C)c(=O)c2cc(F)ccc12 [17f, 3-Fluoro-6-(3-(isopropylamino)propyl)-9-methoxy-5H-pyrido[3′,2′:4,5]cyclopenta[1,2-c]isoquinoline-5,11(6H)-dione]
enzyme inhibitory activity Top1 (compound-induced DNA cleavage score) (recombinant Top1): ++

CNCCCn1c2c(c3ccc(F)cc3c1=O)C(=O)c1cc(OC)cnc1-2 [17g, 3-Fluoro-9-methoxy-6-(3-(methylamino)propyl)-5H-pyrido[3′,2′:4,5]cyclopenta[1,2-c]isoquinoline-5,11(6H)-dione]
enzyme inhibitory activity Top1 (compound-induced DNA cleavage score) (recombinant Top1): +

CCNCCCn1c2c(c3ccc(F)cc3c1=O)C(=O)c1cc(OC)cnc1-2 [17h, 6-(3-(Ethylamino)propyl)-3-fluoro-9-methoxy-5H-pyrido[3′,2′:4,5]cyclopenta[1,2-c]isoquinoline-5,11(6H)-dione]
enzyme inhibitory activity Top1 (compound-induced DNA cleavage score) (recombinant Top1): ++

COc1cnc2c(c1)C(=O)c1c-2n(CCCN2CCCC2)c(=O)c2cc(F)ccc12 [17i, 3-Fluoro-9-methoxy-6-(3-(pyrrolidin-1-yl)propyl)-5H-pyrido[3′,2′:4,5]cyclopenta[1,2-c]isoquinoline-5,11(6H)-dione]
enzyme inhibitory activity Top1 (compound-induced DNA cleavage score) (recombinant Top1): +++

CC[C@@]1(O)C(=O)OCc2c1cc1n(c2=O)Cc2cc3ccccc3nc2-1 [compound 1, camptothecin]
enzyme inhibitory activity Top1 (compound-induced DNA cleavage score) (recombinant Top1): ++++

O=C1c2ccccc2-c2c1c1ccc([N+](=O)[O-])cc1c(=O)n2CCCn1ccnc1 [compound 7]
GI50 (UACC-62): 12 nM
GI50 (HOP-62): 190 nM
GI50 (SN12C): 15 nM
GI50 (HCT-116): 274 nM
enzyme inhibitory activity Top1 (compound-induced DNA cleavage score) (recombinant Top1): ++++
GI50 (DU-145): 17 nM
GI50 (OVCAR-3): 864 nM
GI50 (MCF-7): 2170 nM
GI50 (SF-539): 16 nM

COc1cnc2c(c1)C(=O)c1c-2n(CCCn2ccnc2)c(=O)c2cc([N+](=O)[O-])ccc12 [compound 9]
zebrafish survival percentage (zebrafish embryos; 0.1 μM in medium, 48 h after fertilization): 0 ± 0 %
zebrafish survival percentage (zebrafish embryos; 0.1 μM in medium, 72 h after fertilization): 0 ± 0 %
zebrafish survival percentage (zebrafish embryos; 0.1 μM in medium, 96 h after fertilization): 0 ± 0 %
zebrafish survival percentage (zebrafish embryos; 0.1 μM in medium, 120 h after fertilization): 0 ± 0 %
zebrafish survival percentage (zebrafish embryos; 1 μM in medium, 24 h after fertilization): 0 ± 0 %
zebrafish survival percentage (zebrafish embryos; 1 μM in medium, 48 h after fertilization): 0 ± 0 %
zebrafish survival percentage (zebrafish embryos; 1 μM in medium, 72 h after fertilization): 0 ± 0 %
zebrafish survival percentage (zebrafish embryos; 1 μM in medium, 96 h after fertilization): 0 ± 0 %
zebrafish survival percentage (zebrafish embryos; 1 μM in medium, 120 h after fertilization): 0 ± 0 %
zebrafish survival percentage (zebrafish embryos; 10 μM in medium, 24 h after fertilization): 0 ± 0 %
zebrafish survival percentage (zebrafish embryos; 10 μM in medium, 48 h after fertilization): 0 ± 0 %
zebrafish survival percentage (zebrafish embryos; 10 μM in medium, 72 h after fertilization): 0 ± 0 %
zebrafish survival percentage (zebrafish embryos; 10 μM in medium, 96 h after fertilization): 0 ± 0 %
zebrafish survival percentage (zebrafish embryos; 10 μM in medium, 120 h after fertilization): 0 ± 0 %
lethality in zebrafish (comparison between compounds) (zebrafish embryos): significantly more lethal
GI50 (UACC-62): < 10 nM
GI50 (HOP-62): < 10 nM
GI50 (SN12C): < 10 nM
GI50 (HCT-116): < 10 nM
GI50 (DU-145): < 10 nM
GI50 (OVCAR-3): 25 nM
GI50 [1]: 21 nM
GI50 (MCF-7): < 10 nM
GI50 (SF-539): < 10 nM

COc1cnc2c(c1)C(=O)c1c-2n(CCCN2CCOCC2)c(=O)c2cc([N+](=O)[O-])ccc12 [compound 10]
GI50 (UACC-62): 40 nM
GI50 (HOP-62): 51 nM
GI50 (SN12C): 43 nM
GI50 (HCT-116): 50 nM
enzyme inhibitory activity Top1 (compound-induced DNA cleavage score) (recombinant Top1): ++++
GI50 (DU-145): 40 nM
GI50 (OVCAR-3): 110 nM
GI50 (MCF-7): 20 nM
GI50 (SF-539): 35 nM

COc1cnc2c(c1)C(=O)c1c-2n(CCCN2CCOCC2)c(=O)c2cc(Cl)ccc12 [compound 16a, 3-Chloro-9-methoxy-6-(3-morpholinopropyl)-5H-pyrido[3′,2′:4,5]cyclopenta[1,2-c]isoquinoline-5,11(6H)-dione]
enzyme inhibitory activity Top1 (compound-induced DNA cleavage score) (recombinant Top1): +++

COc1cnc2c(c1)C(=O)c1c-2n(CCCn2ccnc2)c(=O)c2cc(Cl)ccc12 [compound 16b, 3-Chloro-6-(3-(1H-Imidazol-1-yl)propyl)-9-methoxy-5H-pyrido[3′,2′:4,5]cyclopenta[1,2-c]isoquinoline-5,11(6H)-dione]
lethality in zebrafish (comparison between compounds) (zebrafish embryos): lethality difference between them is not significant
enzyme inhibitory activity Top1 (compound-induced DNA cleavage score) (recombinant Top1): +++

COc1cnc2c(c1)C(=O)c1c-2n(CCCNC2=NCCS2)c(=O)c2cc(Cl)ccc12 [compound 16c, 3-Chloro-6-(3-((4,5-dihydrothiazol-2-yl)amino)propyl)-9-methoxy-5H-pyrido[3′,2′:4,5]cyclopenta[1,2-c]isoquinoline-5,11(6H)-dione]
enzyme inhibitory activity Top1 (compound-induced DNA cleavage score) (recombinant Top1): ++

COc1cnc2c(c1)C(=O)c1c-2n(CCCN2CCC(O)CC2)c(=O)c2cc(Cl)ccc12 [compound 16d, 3-Chloro-6-(3-(4-hydroxypiperidin-1-yl)propyl)-9-methoxy-5H-pyrido[3′,2′:4,5]cyclopenta[1,2-c]isoquinoline-5,11(6H)-dione]
enzyme inhibitory activity Top1 (compound-induced DNA cleavage score) (recombinant Top1): ++++

COc1cnc2c(c1)C(=O)c1c-2n(CCCN2CCN(C)CC2)c(=O)c2cc(Cl)ccc12 [compound 16j, 3-Chloro-9-methoxy-6-(3-(4-methylpiperazin-1-yl)propyl)-5H-pyrido[3′,2′:4,5]cyclopenta[1,2-c]isoquinoline-5,11(6H)-dione]
enzyme inhibitory activity Top1 (compound-induced DNA cleavage score) (recombinant Top1): +

COc1cnc2c(c1)C(=O)c1c-2n(CCCn2ccnc2)c(=O)c2cc(F)ccc12 [compound 17b, 3-Fluoro-6-(3-(1H-imidazol-1-yl)propyl)-9-methoxy-5H-pyrido[3′,2′:4,5]-cyclopenta[1,2-c]isoquinoline-5,11(6H)-dione]
lethality in zebrafish (comparison between compounds) (zebrafish embryos): lethality difference between them is not significant
enzyme inhibitory activity Top1 (compound-induced DNA cleavage score) (recombinant Top1): +++
